Measured values reported in patent US20190209501A1, “COMPOSITIONS AND METHODS OF USE OF BETA-HYDROXY-BETA-METHYLBUTYRATE (HMB) […] IN[…]” (Texas Tech University Office of Research Commercialization, priority 2018, published 2019).
“Also recorded” adds a separate entry of the source. Where two headings read alike, the source gives them in different places. Marks after values point to notes of the source that are not given here.

Assays:
[1] = Percent body fat by underwater weighing, HMB without intermittent fasting (Panton et al.); assay type: in vivo, human; conditions: 3 g/d Calcium-HMB without intermittent fasting + RT
Method: In an earlier study described in Panton et al. (54) trained and untrained females (n=18, 27±2.1 y, 62.3±2.2 kg) were randomized to 3 g/d Calcium-HMB without intermitted fasting. The HMB only group completed 4 weeks of supervised resistance training and trained three times per week. Body composition was measured before and after the 4 weeks of training using underwater weighing procedures (55). Percent body fat (BF %) was estimated from the Siri equation^5.

[2] = 3 g/d Calcium-HMB without intermittent fasting + RT, cited from earlier work
[3] = Urinary HMB concentrations; assay type: in vivo, human; conditions: for Urinary HMB concentration, Intervention: during intervention, 3 g/d calcium HMB
From the text: (§1) At baseline and after 4 and 8 weeks of the intervention, participants completed two testing sessions: (1) a morning assessment conducted after an overnight fast for assessment of body composition, metabolism, vascular measures and subjective factors: and (2) an afternoon assessment of muscular performance, conducted in the non-fasted state. For morning assessments, participants reported to the laboratory after abstention from eating, drinking, exercising and utilizing caffeine or nicotine for ≥8 hours. Participants were interviewed to confirm adherence to these pre-assessment restrictions. The actual abstention from exercise was ≥14 hours due to the scheduling of exercise sessions. Participants reported to the laboratory wearing athletic clothing, and all metal and accessories were removed from the body prior to testing. Each participant voided her bladder and provided a urine sample. Urine samples were assessed for urine specific gravity (USG) using a digital refractometer (PA201X-093. Misco, Solon, Ohio. USA). Additionally, a standard urinary HCG test was performed to confirm that each participant was not pregnant. Finally, urinary samples were frozen at −80° C. for assessment of urinary HMB content after study unblinding. After voiding, each participant's body mass (BM) and height were determined via digital scale with stadiometer (Seca 769, Hamburg, Germany). Blood draws were performed at Texas Tech University Student Health Services after an overnight fast, and participants completed at-home saliva collections for assessment of the cortisol awakening response (CAR).

[4] = Body composition, modified 4-component model (DXA + BIS), and body mass; assay type: in vivo, human; conditions: for FM (kg) Week 4 / FM (kg) Week 8: 4-component fat mass; for FFM (kg) Week 4 / FFM (kg) Week 8: 4-component fat-free mass; for BF % ES (d) / BM ES (d) / FFM ES (d) / FM ES (d): Cohen's d baseline vs week 8; for BM (kg) Week 4 / BM (kg) Week 8: body mass; for BF % Δ (%) / BM Δ (%) / FFM Δ (%) / FM Δ (%): change baseline to week 8 relative to baseline; for BM (kg) Δ / FFM (kg) Δ / FM (kg) Δ: week 8 minus baseline; for BF % Δ: week 8 minus baseline (absolute BF %)
From the text: as §1
Body composition was assessed using a modified 4-component (4C) model (20, 21) produced from dual-energy x-ray absorptiometry (DXA) and bioimpedance spectroscopy (BIS) data. DXA scans were performed on a Lunar Prodigy scanner (General Electric, Boston, Mass., USA) with enCORE software (v. 16.2). The scanner was calibrated using a quality control block each morning prior to use, and positioning of participants was conducted according to manufacturer recommendations. Each participant was able to fit within the scanning dimensions. DXA bone mineral content (BMC) was divided by 0.9582 to yield an estimate of bone mineral (Mo) (22). Additionally, body volume (BV) was estimated from DXA lean soft tissue (LST), fat mass (FM) and BMC using the equation developed by Wilson et al. for General Electric DXA scanners (20):
BIS was utilized to obtain total body water (TBW) estimates. BIS utilizes Cole modeling (23) and mixture theories (24) to predict body fluids rather than regression equations used by other impedance methods (e.g. bioelectrical impedance analysis (25)). The BIS device used in the present study (SFB7, ImpediMed. Carlsbad, Calif., USA) employs 256 measurement frequencies ranging from 4 to 1,000 kHz. Each participant remained supine for ≥5 minutes immediately prior to assessment using the manufacturer-recommended hand-to-foot electrode arrangement. Duplicate assessments were performed, with the values averaged for analysis. Assessments were reviewed for quality assurance through visual inspection of Cole plots.
The 4C equation of Wang et al. was utilized for estimation of whole-body FM (26):
FFM was calculated as BM−FM, and BF % was calculated as (FM/BM)×100.

[5] = ITT analysis, week 4, mean ± SE
[6] = ITT analysis, week 8, mean ± SE

CC(C)(O)CC(=O)O [TRFHMB, β-hydroxy-β-methylbutyrate]
BF % 4-week effect size (d) [1]: −0.15
BF % after 4 weeks ([2]; females n=18, from 23.7±1.1, nonsignificant): 23.0±1.2%
BF % 4-week Δ-change [2]: −0.7%
Urinary HMB concentration, Intervention ([3]; ITT analysis): 5033 ± 751 nmol/mL
Urinary HMB concentration, Intervention ([3]; PP analysis): 6553 ± 1117 nmol/mL
Change in urinary HMB concentrations from pre-intervention to intervention ([3]; both ITT and PP analyses): increased significantly
Absolute effect size for BF % loss, TRFHMB relative to HMB only ([4]; 4 weeks): 2 fold
BF % Week 4 ([4]; ITT analysis, 4-component body fat percentage, week 4, mean ± SE): 27.1 ± 1.7%
BF % Week 8 ([4]; ITT analysis, 4-component body fat percentage, week 8, mean ± SE): 27.3 ± 1.6%
FM (kg) Week 4 [4, 5]: 17.5 ± 1.5 kg
FM (kg) Week 8 [4, 6]: 17.5 ± 1.5 kg
FFM (kg) Week 4 [4, 5]: 46.5 ± 1.4 kg
FFM (kg) Week 8 [4, 6]: 46.2 ± 1.3 kg
BF % ES (d) ([4]; ITT analysis): −0.25
BM ES (d) ([4]; ITT analysis): 0.08
FFM ES (d) ([4]; ITT analysis): 0.26
FM ES (d) ([4]; ITT analysis): −0.13
BM (kg) Week 4 [4, 5]: 63.9 ± 2.2 kg
BM (kg) Week 8 [4, 6]: 63.8 ± 2.1 kg
BF % Δ (%) ([4]; ITT analysis): −5%
BM Δ (%) ([4]; ITT analysis): 1%
FFM Δ (%) ([4]; ITT analysis): 3%
FM Δ (%) ([4]; ITT analysis): −4%
BM (kg) Δ ([4]; ITT analysis): 0.6 kg
FFM (kg) Δ ([4]; ITT analysis): 1.2 kg
FM (kg) Δ ([4]; ITT analysis): -0.7 kg
BF % Δ ([4]; ITT analysis): −1.4%
Fat mass change versus baseline (in words) ([4]; PP analysis): significant reductions; also recorded: lower at W8 than baseline
BF % Week 8 ([4]; PP analysis, 4-component body fat percentage, week 8, mean ± SE): 26.8 ± 2.6^b %
FM (kg) Week 4 ([4]; PP analysis, week 4, mean ± SE): 17.5 ± 2.5 kg
FM (kg) Week 8 ([4]; PP analysis, week 8, mean ± SE): 17.3 ± 2.3^b kg
FFM (kg) Week 4 ([4]; PP analysis, week 4, mean ± SE): 46.8 ± 1.8 kg
FFM (kg) Week 8 ([4]; PP analysis, week 8, mean ± SE): 46.4 ± 1.6 kg
BF % ES (d) ([4]; PP analysis): −0.34
BM ES (d) ([4]; PP analysis): 0.00
FFM ES (d) ([4]; PP analysis): 0.32
FM ES (d) ([4]; PP analysis): −0.23
BM (kg) Week 4 ([4]; PP analysis, week 4 of TRF + 3 g/d HMB + RT, mean ± SE): 64.2 ± 3.1 kg
BM (kg) Week 8 ([4]; PP analysis, week 8, mean ± SE): 63.7 ± 3.0 kg
BF % Δ (%) ([4]; PP analysis): −8%
BM Δ (%) ([4]; PP analysis): 0%
FFM Δ (%) ([4]; PP analysis): 3%
FM Δ (%) ([4]; PP analysis): −7%
Reduction in BF % at W8 (significance) ([4]; PP analysis, week 8): statistically significant
BM (kg) Δ ([4]; PP analysis): 0.0 kg
FFM (kg) Δ ([4]; PP analysis): 1.4 kg
FM (kg) Δ ([4]; PP analysis): -1.4 kg
BF % Δ ([4]; PP analysis): −2.3%
BF % 4-week effect size (d) ([4]; PP, TRF + 3 g/d Calcium-HMB + RT, n=7): −0.31
BF % 4-week Δ-change ([4]; PP, TRF + 3 g/d Calcium-HMB + RT, n=7, baseline 29.1±2.5, p<0.05): −2.1%
